Consider four molecules from US20090317395A1, “Antimicrobial Peptide Derived from Galanin Message Associated Peptide (GMAP)” (priority 2006, published 2009).

For experiment [1], the system named is Candida albicans. The experiment can be described thus: Microscopic examination of treated Candida albicans cultures for hyphae (yeast-to-hypha switch). It is filed as cell-based. How it is done: Cultures of Candida albicans were treated for 24 and 48 hrs either with the common antifungal substance fluconazol, GMAP 16-42 or Galanin.
Experiment [2] relates to Candida albicans. Briefly: Antifungal (growth inhibition) activity against C. albicans. The settings on record: for inhibitory growth effect / antimicrobial activity against C. albicans: FIG. 3 (C), ** p<0.05. It is filed as cell-based. From the text: The inventors analyzed the antimicrobial activity of peptide fragments corresponding to ppGAL against gram-negative E. coli gram-positive Staphylococcus aureus and Corynebacterium sp. and the yeast Candida albicans and Aspergillus fumigatus. Positive controls were the antimicrobial peptides Indolicidin, NPY 13-36 and Magainin I, as a negative control served the Adrenocorticotropic hormone (ACTH) 18-39 (Cutuli M, Cristiani S, Lipton J M and Catania A: Antimicrobial effects of alpha-MSH peptides. J Leukoc Biol 67:233-239, 2000; Selsted M E, Novotny M J, Morris W L, Tang Y Q, Smith W and Cullor J S: Indolicidin, a novel bactericidal tridecapeptide amide from neutrophils. J Biol Chem. 267:4292-4295., 1992; Shimizu M, Shigeri Y, Tatsu Y, Yoshikawa S and Yumoto N: Enhancement of antimicrobial activity of neuropeptide Y by N-terminal truncation. Antimicrob Agents Chemother 42:2745-2746, 1998; Zasloff M: Magainins, a class of antimicrobial peptides from Xenopus skin: isolation, characterization of two active forms, and partial cDNA sequence of a precursor. Proc Natl Acad Sci USA 84:5449-5453, 1987).
None of the peptide fragments tested of the ppGal gene did reveal antibacterial activity. […] The antifungal activity can be found already at a concentration of […] (4 μM).

[3] abbreviates: interpretation of microscopy findings.

Several values for one entry are separate records, joined by “and”; a condition that tells them apart may be missing. Equal entries are not always repeated. Entries after “also recorded” stand apart in the source; their conditions may differ.

In the case of `OC(Cn1cncn1)(Cn1cncn1)c1ccc(F)cc1F` [fluconazol, reference compound], the “microscopic examination of cultures: hyphae / yeast forms” value in experiment [1] (treated for 24 and 48 hrs) is “hyphae were only visible in the untreated and galanin treated wells”; in experiment [1] (treated for 48 hrs (FIG. 4)), “hyphae were only visible in the untreated and galanin treated wells”.
Consider “ELRPEDDMKPGSFDRSIPENNIMRTIIEFLSFLHLKEAGAL (listed as Homo sapiens) [GMAP 1-41]”, for which the “inhibitory growth effect / antimicrobial activity against C. albicans” value in experiment [2] is listed as “active compound”.
On to “GMAP: galanin message associated peptide; in b114 refers to the GMAP fragment treated wells (ELRPEDDMKPGSFDRSIPENNIMRTIIEFLSFLHLKEAGAL; listed as Homo sapiens)”, for which, in experiment [1] (setting [3]), the “effect on proliferation of Candida per se” value is “not to significantly affect the proliferation of Candida per se” and the “effect on switch to pathogenic hyphal forms” value is on record as “inhibits the switch to pathogenic hyphal forms; also recorded: inhibits the pathogenic phenotypic switch of C. albicans”.
As to “SIPENNIMRTIIEFLSFLHLKEAGAL (listed as Homo sapiens) [GMAP 16-41]”, the “concentration at which antifungal activity can be found” value in experiment [2] (C. albicans) was 12 pg/ml and 4 μM. Further, the “inhibitory growth effect / antimicrobial activity against C. albicans” value in experiment [2] is recorded as “antimicrobial core sequence”.
